Reference: patent publication US9617263B2, “Phenyl-triazolo-pyridine compounds” (Eli Lilly and Company, priority 2014, dated 2017)

What was measured:
PPARγ = molecular target: T1, PPARγ (Homo sapiens, UniProt P37231); assay: PPARγ reporter (CTF) functional assay in CV1 cells; type: cell-based; details: examined up to 10 M; versus 10 μM PPAR agonist reference compound
T1 construct: expressed in transfected cells; host or cells: CV1 (African green monkey kidney)
T1 sequence (P37231 1-505): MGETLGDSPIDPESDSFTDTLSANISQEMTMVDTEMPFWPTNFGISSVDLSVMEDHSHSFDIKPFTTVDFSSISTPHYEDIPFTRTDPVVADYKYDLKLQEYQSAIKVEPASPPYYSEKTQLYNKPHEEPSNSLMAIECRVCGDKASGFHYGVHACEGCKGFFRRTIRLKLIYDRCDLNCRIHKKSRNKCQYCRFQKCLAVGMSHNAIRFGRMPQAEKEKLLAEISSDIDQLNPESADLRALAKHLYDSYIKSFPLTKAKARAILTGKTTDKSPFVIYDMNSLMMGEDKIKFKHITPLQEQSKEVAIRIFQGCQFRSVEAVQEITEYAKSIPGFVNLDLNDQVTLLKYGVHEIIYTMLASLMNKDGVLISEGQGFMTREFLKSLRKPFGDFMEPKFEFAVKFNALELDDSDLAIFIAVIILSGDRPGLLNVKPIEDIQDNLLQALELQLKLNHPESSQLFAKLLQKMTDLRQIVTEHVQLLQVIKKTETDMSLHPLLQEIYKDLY
T1 sequence (P19793 1-462 partner): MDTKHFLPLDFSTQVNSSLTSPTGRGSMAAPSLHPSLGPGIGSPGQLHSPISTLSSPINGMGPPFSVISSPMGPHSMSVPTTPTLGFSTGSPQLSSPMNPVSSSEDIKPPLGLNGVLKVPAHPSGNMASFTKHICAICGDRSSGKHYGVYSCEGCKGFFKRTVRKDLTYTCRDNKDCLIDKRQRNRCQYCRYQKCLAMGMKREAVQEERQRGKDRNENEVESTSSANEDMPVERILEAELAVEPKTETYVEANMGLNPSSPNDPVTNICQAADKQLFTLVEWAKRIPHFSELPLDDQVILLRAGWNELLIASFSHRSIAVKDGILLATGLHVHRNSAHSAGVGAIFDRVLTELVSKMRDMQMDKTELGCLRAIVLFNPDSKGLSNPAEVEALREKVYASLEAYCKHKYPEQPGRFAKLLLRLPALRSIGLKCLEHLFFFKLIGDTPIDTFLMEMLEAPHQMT
Protocol: Because GPR40 is known to be activated by ligands to PPARγ, exemplified compounds are examined in Gal4 PPARα, Gal4 PPARδ, and PPARγ reporter assays to determine the selectivity of exemplified compounds for PPAR receptors. CV1 cells, which are derived from the renal tissue of an African green monkey, are transfected with various receptor and reporter plasmids using Fugene. […] After 24 hours incubation with compounds, cells are lysed and luciferase activity is determined as a measure of receptor activation by luminescence. […] The maximum percent stimulation is determined versus maximum stimulation obtained with 10 μM of an appropriate PPAR agonist reference compound, 2-methyl-2-(4-{2-methyl-3-[2-(phenylcarbonyl)-4-(trifluoromethoxy)phenoxy]propoxy}phenoxy)propanoic acid. […] Efficacy was negative for PPARα, PPARδ, and PPARγ is detected with the compound of Example 1 when examined up to […] in the specific PPAR co-transfection (CTF) functional assays described above. […]

Male Balb/c mice = assay: Intraperitoneal glucose tolerance test (IPGTT); type: in vivo, mouse
Protocol: To examine the ability of Examples 1 to 20 to activate GPR40 in-vivo resulting in desired glucose lowering efficacy, i.e. reduction in plasma glucose levels, an intraperitoneal glucose tolerance test (ipGTT) study is completed, and the data is shown for the compound tested below.
Male Balb/c (Albino mice) mice (8-9 weeks of age) are single housed, and fed with normal rodent chow diet and water ad libitum. Animals are weighed; randomized by body weight; and their daily body weights are recorded. Animals are dosed daily using a formulation carrying methylcellulose and tween-80. On the night before the study, animals are fasted. In the morning, animals are dosed orally with compound or vehicle alone 60 minutes prior to the glucose tolerance test (glucose 2 g/kg, i.p.). Blood glucose levels are determined from tail bleeds taken at 0, 3, 7, 15, 30, and 60 min after glucose challenge. […] Percent lowering in glucose is calculated from the AUC data of the compound with respect to the AUC of vehicle group. The test compound is orally administered at 0.3, 1.0, 3.0, 10, 30, or 100 mg/kg, and a positive control (3-[4-(2-methyl-benzyloxy)-phenyl]-hex-4-ynoic acid, see WO2005086661 (TAK875).) is administered at 10 mg/kg. […] Glucose levels are lowered at the 30, and 60 minute time points for the positive control.

hGPR40 = hGPR40 (Homo sapiens, UniProt O14842); assay: Calcium Flux Primary Assay (FLIPR, Calcium 4 Dye); type: cell-based; design: expressed in transfected cells; host or cells: HEK293; details: HEK293 cells over expressing human GPR40; Mean±SEM
Protocol: HEK293 cells over expressing the human GPR40 cDNA maintained in Dulbecco's modified Eagle's medium with F12 medium in 3:1 ratio supplemented with 10% FBS and 800 μg/ml geneticin at 37° C. and 5% CO2 are employed for the study. Agonist assays are performed using a Calcium 4 Dye assay kit (Molecular Devices) in the presence or absence of 0.1% fatty acid free BSA in the assay buffer (1×HBSS (Hank's Balanced Salt Solution) & 20 mM HEPES (4-(2-hydroxyethyl)-1-piperazineethanesulfonic acid). Receptor activation is measured as an increase in intracellular calcium using the Fluorometric Imaging Plate Reader (FLIPR). Maximum change in fluorescence over the base line is used to determine the agonist response. The EC50 value of the compound is calculated using Excel Fit software (version 4; IDBS) by plotting concentration vs relative fluorescence units (RFUs).

hGPR40, sequence (O14842 whole entry): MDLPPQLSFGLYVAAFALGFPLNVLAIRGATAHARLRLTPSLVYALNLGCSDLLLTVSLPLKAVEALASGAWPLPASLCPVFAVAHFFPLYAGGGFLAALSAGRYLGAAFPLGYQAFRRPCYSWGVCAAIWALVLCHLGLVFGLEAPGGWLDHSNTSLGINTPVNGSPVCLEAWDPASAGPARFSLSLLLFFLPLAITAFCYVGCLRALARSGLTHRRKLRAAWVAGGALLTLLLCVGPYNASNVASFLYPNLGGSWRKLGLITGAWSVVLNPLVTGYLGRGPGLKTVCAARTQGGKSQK

EC50 (hGPR40): 146 nM
SMILES: CC#C[C@@H](CC(=O)O)c1ccc(OCc2cc(-c3ccccc3C)cn3ncnc23)cc1 [Example 1, (S)-3-[4-(6-o-Tolyl-[1,2,4]triazolo[1,5-a]pyridin-8-ylmethoxy)-phenyl]-hex-4-ynoic acid]
Efficacy for PPARγ (PPARγ): negative (Efficacy of <20% is considered negative)
Glucose levels compared to vehicle control (Male Balb/c mice; 30 and 60 minute time points, Example 1 at 10, 30, 100 mg/kg oral, positive control 10 mg/kg): significantly lowered
ED50 (Male Balb/c mice; Mus musculus, oral, 60 min before glucose 2 g/kg i.p., read-out: ED50 based on AUCs for glucose lowering): 7.9 mg/kg
